The subject of test [1] is human non-small cell lung cancer A549 transplanted tumor. Description: Example 9: tumor growth in A549 transplanted tumor model. The test is classed as in vivo, nude mice. The source says: Human non-small cell lung cancer cells A549 were obtained from the Cell Bank of the Type Culture Collection Committee of Chinese Academy of Sciences (CAS, cryopreserved in liquid nitrogen in this assay). […] On D1 of the assay, the A549 cells in the logarithmic growth phase were collected, counted and resuspended in PBS, and the cell concentration was adjusted to 8×10^7 cells/mL. The cells were pipetted with a pipette to disperse them evenly, and the cells were put into a 50-mL centrifuge tube, which was placed in an ice box. A 1-mL syringe was used to draw the cell suspension, which was injected subcutaneously into the axilla of the front right limb of a nude mouse. Each animal was inoculated with 100 μL (8×10^6 cells/mouse) to establish an A549 transplanted tumor model in nude mice. After the inoculation, the animal status and tumor growth were regularly observed. On D18, the tumor diameter was measured using an electronic vernier caliper. The data were input into an Excel spreadsheet to calculate the tumor volume. Tumor-bearing mice in good health and with similar tumor volumes (101 to 156 mm^3) were selected and divided into groups using randomized block method. After the start of the assay, the tumor diameter was measured regularly, the tumor volume was calculated, and the animal body weight was also weighed and recorded. On the last day of the assay, CO2 inhalation anesthesia was used on the animals 1 hour after the administration (R01). Blood was collected through the heart, and a part of the whole blood was added with EDTA-K2 for anticoagulation. The plasma was separated by centrifugation at 4° C. and 1500 g for 10 minutes. The plasma was collected, and stored in a −40° C. to −20° C. freezer (if necessary, it can be used for the determination of the plasma drug concentration). No anticoagulant was added to the other part of the whole blood, and the serum was separated by centrifugation after the blood coagulated, which was used for the detection of blood urea nitrogen. After the blood collection, the tumor tissue was collected, weighed and photographed. Then, the tumor was divided into two parts, quickly cryopreserved by liquid nitrogen, and transferred to a −90° C. to −60° C. freezer for storage. […] [table]

Test [2] relates to A549 cells. Kind of test: CCK-8 cell proliferation assay, A549. The test is classed as cell-based. The settings on record: Homo sapiens. Here is the method:
(1) Cells in the logarithmic growth phase were taken and digested to make a cell suspension. 20 μl of the cell suspension was taken with a pipette, and added to a CountStar disposable cell counting plate for cell counting, and the counting results were recorded. The cell concentration was adjusted to 30,000 to 40,000 cells/ml (note: different cells have different growth rates, so the number of cells in each well was slightly different).
(2) A 96-well plate was taken. Since the wells in the outermost circle of the culture plate were easy to evaporate and dry, causing inaccurate volumes, and increasing errors, 100 μl of PBS was added to the wells in the outermost circle, which were not used as assay wells.
(3) The adjusted cell suspension was added to the 96-well plate, with 100 μl in each well, resulting approximately 3000 to 4000 cells in each well. The plate was placed in a 37° C. incubator under the condition of 5% CO2 for cell culture, and the drug was added when the cells adhered to the wall.
(4) Drug dilution. The concentration gradient was set as: 0 μM, 10 μM, 50 μM, 100 μM, and 200 μM, with 3 duplicates for each concentration. In addition, blank control wells containing only culture medium and drug without cells were also set.
(5) The plate was incubated in the incubator for 24 h, 48 h and 72 h, respectively. After reaching the set time point, the 96-well plate was taken out from the incubator, and 10 μl of CCK-8 reagent was added to each well, taking care to avoid bubbles. The plate was shaked to mix evenly, and put back into the incubator to culture for another 2 hours.
(6) To detect the absorbance, the 96-well plate was placed in a […], and the absorbance value (OD value) at 450 nm was detected. The data was recorded. Cell viability=(OD value of the assay well−OD value of the blank control well)/(OD value of the solvent control well−OD value of the blank control well)×100%.
(7) The data was imported into GraphPad Prism5 for plotting. The IC50 values were calculated, and the curves were drawn.
On the technique in general: Formazan colour is commonly taken as a measure of viable cells.

Where [3] appears, read: D21, DDP 5/7/7/7 mg/kg i.p. QW×4.
The mark [4] stands for this setting: D25, DDP 5/7/7/7 mg/kg i.p. QW×4.
[5] abbreviates: D28, DDP 5/7/7/7 mg/kg i.p. QW×4.
[6] abbreviates: D32, DDP 5/7/7/7 mg/kg i.p. QW×4.
Setting [7] is: D35, DDP 5/7/7/7 mg/kg i.p. QW×4.
Where [8] appears, read: D39, DDP 5/7/7/7 mg/kg i.p. QW×4.
The mark [9] stands for this setting: D42, DDP 5/7/7/7 mg/kg i.p. QW×4.
[10] abbreviates: D46, DDP 5/7/7/7 mg/kg i.p. QW×4.

This note sets out measurements from US20250270170A1, “2,3-DIMETHOXY-5-METHYL-1,4-BENZOQUINONE ALKYL ALCOHOL DERIVATIVE AND USE THEREOF” (BEIJING ANJIANXI BIO-MEDICAL TECHNOLOGY CO., LTD., priority 2021, published 2025).

Structures are written as SMILES. Marks after values point to notes of the source that are not given here.

For `N.N.[Cl][Pt][Cl]` [DDP, cisplatin], the Mean tumor volume in test [1] (D18, DDP 4 mg/kg i.p. QW×4) is given as 127 ± 6 mm^3; in test [1] (D18, DDP 5/7/7/7 mg/kg i.p. QW×4), 130 ± 5 mm^3; in test [1] (D21, DDP 4 mg/kg i.p. QW×4) it was 210 ± 10 mm^3; in test [1] (setting [3]), 208 ± 11 mm^3; in test [1] (D25, DDP 4 mg/kg i.p. QW×4), 297 ± 20** mm^3; in test [1] (setting [4]), 308 ± 23** mm^3. Besides, the Mean tumor volume was 418 ± 28** mm^3 in test [1] (D28, DDP 4 mg/kg i.p. QW×4); 428 ± 30** mm^3 in test [1] (setting [5]); 561 ± 35** mm^3 in test [1] (D32, DDP 4 mg/kg i.p. QW×4); 562 ± 41** mm^3 in test [1] (setting [6]); 670 ± 56** mm^3 in test [1] (D35, DDP 4 mg/kg i.p. QW×4); 696 ± 52* mm^3 in test [1] (setting [7]). In addition, the Mean tumor volume in test [1] (D39, DDP 4 mg/kg i.p. QW×4) is on record as 914 ± 89** mm^3; in test [1] (setting [8]), 892 ± 86** mm^3; in test [1] (D42, DDP 4 mg/kg i.p. QW×4), 1110 ± 119 mm^3; in test [1] (setting [9]), 1099 ± 85* mm^3; in test [1] (D46, DDP 4 mg/kg i.p. QW×4), 1333 ± 176 mm^3; in test [1] (setting [10]), 1236 ± 32* mm^3. The “tumor growth inhibition rate (TGI)” value was “(−1.0%)” in test [1] (D21, DDP 4 mg/kg i.p. QW×4); “(4.7%)” in test [1] (setting [3]); “(37%)” in test [1] (D25, DDP 4 mg/kg i.p. QW×4); “(34%)” in test [1] (setting [4]); “(29%)” in test [1] (D28, DDP 4 mg/kg i.p. QW×4); “(27%)” in test [1] (setting [5]). Further, the “tumor growth inhibition rate (TGI)” value was “(27%)” in test [1] (D32, DDP 4 mg/kg i.p. QW×4); “(28%)” in test [1] (setting [6]); “(26%)” in test [1] (D35, DDP 4 mg/kg i.p. QW×4); “(22%)” in test [1] (setting [7]); “(30%)” in test [1] (D39, DDP 4 mg/kg i.p. QW×4); “(33%)” in test [1] (setting [8]). Also, the “tumor growth inhibition rate (TGI)” value in test [1] (D42, DDP 4 mg/kg i.p. QW×4) was “(23%)”; in test [1] (setting [9]), “(24%)”; in test [1] (D46, DDP 4 mg/kg i.p. QW×4), “(20%)”; in test [1] (setting [10]), “(27%)”. Moreover, the “effect on growth of the A549 transplanted tumor (summary)” value in test [1] (DDP 4 or 5/7/7/7 mg/kg QW, R01 formulation 18 or 36 mg/kg BID, combinations 18+5/7/7/7 and 36+4) is “no significant effect”.
As a reminder, the IC50 is the concentration that gives 50% inhibition. `COC1=C(OC)C(=O)C(CCCCCCCCCCOC(=O)Cc2c(C)n(C(=O)c3ccc(Cl)cc3)c3ccc(OC)cc23)=C(C)C1=O` [compound of formula (I)]: the results for the 50% inhibitory concentration (IC50) in test [2] (24 h), in test [2] (48 h) and in test [2] (72 h) were 213.2 ± 1.22 µM, 55.5 ± 1.84 µM and 39.7 ± 0.98 µM, respectively.
